Data on 91 compounds can be found in PubChem BioAssay AID2305 (GlaxoSmithKline (GSK), 2010).

The assay deals with P. falciparum 3D7 growth, pLDH absorbance. Put plainly: blood-stage malaria parasite growth potency – strain 3D7, dose response (AID 2305).
Consider `Cc1[nH]c(C)c(-c2ccc(Oc3ccc(Cl)cc3)cc2)c(=O)c1C`, for which the IC50 – broadly, the concentration at which inhibition is half-maximal – was determined as 390 nM.
Under `COc1ccc2ccc(F)c(CCN3CCC(NCc4cc5c(cn4)OCCO5)CC3)c2n1` stands 840 nM; under `CC(C)c1ccc(CN2CCC(CNC(=O)c3cc(-c4ccc(N(C)C)cc4)cs3)C2)cc1` (stereo unspecified), 1250 nM; under `COc1ccc(C(O)CNC(C)CCc2ccccc2)cc1C(F)(F)F` (stereo unspecified), 70 nM.
Under `O=C(/C=C/c1ccc2ccccc2c1)NCCCCCN1CCC(c2c[nH]c3ccccc23)CC1` stands 1230 nM; under `COc1ccccc1N1CCN(Cc2c(O)ccc3cc(Br)ccc23)CC1`, 1150 nM; under `Cc1nc2nc(N)nc(N)c2c(C)c1Cc1ccc(O)cc1`, 240 nM.
Regarding `O=c1cc(NCCCNC(c2ccccc2)c2ccc(Cl)c(Cl)c2)[nH]c2ccccc12` (stereo unspecified), the IC50 stood at 1140 nM.
In turn, `CCC(C)CN1CCN(c2ccc(NC(=O)c3cccs3)cc2)CC1C` (stereo unspecified) gave an IC50 of 660 nM.
`CC(C)NCc1ccc(-c2cccc(NC(=O)c3cccc(C#N)c3)c2)cc1` displayed an IC50 of 410 nM.
Under `CCCN(CCC)CCOC(=O)C(OCC)(c1ccccc1)c1ccccc1` stands 870 nM.
Regarding `Cc1cc(N[C@@H](CC(C)C)C(=O)NCc2cccs2)nc(NCCc2ccc(F)cc2)n1`, the IC50 was 800 nM.
Next, `CCN(CC)CCN(Cc1ccc(-c2ccc(C(F)(F)F)cc2)cc1)C(=O)Cn1c(CCc2cccc(F)c2F)cc(=O)c2c1CCCC2`: 870 nM; `CN1CCN(CCCNCc2cccc(-c3ccc(CNCCc4ccccc4)cc3)c2)CC1`: 780 nM.
Next, `CC(C)C[C@H](NC(=O)c1ccc(OCCN2CCOCC2)cc1)C(=O)N[C@H](/C=N/N1CCN(C)C1=O)CCc1ccccc1`: 290 nM.
Under `O=C(Nc1cccc(F)c1)N1CCC(CN2CCOC(c3ccccc3)(c3ccccc3)C2)CC1` stands 200 nM; under `c1ccc(CCNCc2ccc(-c3ccc(CNC4CCN(Cc5ccccc5)CC4)cc3)nc2)cc1`, 450 nM; under `CCCCOc1cc(OC)c2ccccc2c1CCNCCCCNCCc1c(OCCCC)cc(OC)c2ccccc12`, 1050 nM.
In turn, `Oc1ccc(-c2cncc(NCc3ccc(F)c(F)c3)c2)cc1` came in with an IC50 of 770 nM.
`CC(=O)N1N=C(c2ccc(F)cc2)Sc2c1nc(C1CCCCC1)n2C(C)=O` registered an IC50 of 890 nM.
Next, `Oc1ccc(Nc2nc(NCC3CCCO3)c3ccccc3n2)cc1` (stereo unspecified): 810 nM; `CCCc1ccc(S(=O)(=O)Nc2ccc3c(c2)CCC3)cc1`: 880 nM.
`COc1cc2nc(N(C)C)nc(Nc3ccc4c(cnn4Cc4ccccc4)c3)c2cc1OC`: the IC50 was determined as 40 nM.
Consider `Nc1nc(N)c2c(ccc3c2ccn3CC2CC2)n1`, for which the IC50 came to 210 nM.
Compound `O=C(C=Cc1ccc(Cl)c(Cl)c1)NCCCCCN1CCCC(CCCNC(=O)c2cccs2)C1` (stereo unspecified) yielded a 50% inhibitory concentration (IC50) of 1300 nM.
`Cc1cccc2[nH]c(-c3cccc(-c4ccc(NC(=O)c5cnccc5C(F)(F)F)cc4)c3)nc12` showed an IC50 of 700 nM.
Under `CC(C)(C)OC(=O)NCc1ccc(Nc2nnc(-c3cccc(C(=O)NCc4cc(C(F)(F)F)cc(C(F)(F)F)c4)c3)o2)cc1` stands 860 nM.
`C#CCCC(=O)Nc1cccc(-c2cccc(-c3nc4c(C)cccc4[nH]3)c2)c1` returned an IC50 of 740 nM.
Under `COc1cc2nc(NCCc3ccccc3)nc(NCCc3ccccc3)c2cc1OC` stands 280 nM; under `O=C(Nc1ccc2c(c1)CCC2)c1cccc(CN2CCCN(Cc3cccc(O)c3)CC2)c1`, 1080 nM; under `CCCCc1cc(NCc2ccncc2)nc(Nc2cccc(OC)c2)n1`, 740 nM.
For `Cc1noc(C)c1CN1CCCN(c2ccc3c(c2)CCN(Cc2ccc(-c4ncc[nH]4)cc2)CC3)CC1`, the IC50 was determined as 860 nM. The IC50 values of the last two compounds are within 1.5-fold of each other.
In the case of `Cc1cccc(C)c1C1CCN(C2CCC(NC(=O)/C=C/c3ccccc3)CC2)CC1` (stereo unspecified), the IC50 was 580 nM.
For `COc1ccc2nc(C)cc(NN=Cc3ccc(Cl)cc3)c2c1`, the IC50 amounted to 230 nM.
In turn, `Cc1c(NCCCNCc2cc(Cl)cc(Cl)c2Cl)[nH]c2ccccc2c1=O` displayed an IC50 of 310 nM.
As to `CCCCCCOc1ccc(C(=O)NCCC2CCN(CCCCCNC(=O)C=Cc3ccc(Cl)c(Cl)c3)CC2)cc1`, the IC50 was 660 nM.
As to `CCC(CC)n1cc2c(ccc3nc(N)nc(N)c32)n1`, the IC50 stood at 80 nM.
`O=C(Nc1cccc(CN2CCCN(Cc3ccc4c(c3)OCO4)CC2)c1)c1ccc(Cl)c(Cl)c1`: the IC50 was 890 nM.
For the compound `c1ccc2c(c1)CN(CC1CCOCC1)CC1(CCN(Cc3c[nH]c4cnccc34)CC1)O2`, the IC50 was 1550 nM.
Next, `CCc1ccccc1N1CCN(CCCC(=O)c2ccc(NC(=O)c3ccc(Cl)cc3)cc2)CC1`: 1310 nM.
For the compound `c1cc(-c2ccc(CNCCc3ccncc3)cc2)cc(-c2nc3ccccc3[nH]2)c1`, the IC50 amounted to 140 nM. Compared with the last compound, the IC50 is about 9.4-fold lower.
Under `O=P(O)(O)Oc1c(Br)cc(Br)cc1-c1cc(Br)cc(Br)c1O` stands 170 nM; under `COc1ccc2nccc([C@@H](O)CN3CCC(NC(=O)CCC(=O)c4cc(C(C)(C)C)ccc4OC)CC3)c2c1`, 850 nM; under `Oc1cc(Nc2ccnc3cc(I)ccc23)c(F)cc1Cl`, 830 nM.
Under `Nc1nc(N)c2c(Sc3ccccc3)cccc2n1` stands 650 nM.
Next, `O=C(c1cc(-c2cccs2)[nH]n1)N1CCN(S(=O)(=O)c2ccc(Br)cc2)CC1`: 360 nM; `Cc1cc(Nc2nc(NCc3cccnc3)nc3ccccc23)n[nH]1`: 850 nM.
In turn, `CC(=O)Oc1c(Cl)c(C)nc(C)c1-c1ccc(Oc2ccc(Cl)cc2)cc1` came in with an IC50 of 30 nM. This IC50 is about 28-fold lower than that of the compound before.
`O=C(NC1CCCCN(Cc2ccccc2O)C1)c1cc(F)cc(F)c1` (stereo unspecified): the IC50 came to 1170 nM.
The compound `CC1(C)CC(=O)c2c(O)cc(OCc3ccncc3)cc2O1` gave an IC50 of 1040 nM.
Under `CN(C)c1ccnc2ccc(NC(=O)Nc3ccnc4ccccc34)cc12` stands 130 nM; under `COC(=O)c1cc(OC2CCOC2=O)cc2c1OC(C)(C)O2` (stereo unspecified), 810 nM; under `COc1ccc2nc3cc(Cl)ccc3c(NCCCCN3CCNCC3)c2c1`, 180 nM.
Next, `Cc1cccc2[nH]c(-c3ccc(-c4ccc(NC(=O)NCc5ccc(F)cc5)cc4)cc3)nc12`: 1330 nM; `CCOC(=O)c1ccc2nc(-c3ccc(C(=O)NC4CCN(Cc5ccccc5)CC4)s3)[nH]c2c1`: 740 nM.
Next, `FC(F)(F)CNc1nc(Nc2ccc3ncccc3c2)nc2[nH]ccc12`: 1240 nM; `N#CNC(=NCCCSc1csc(N=C(N)N)n1)NCCCCCCCCN=C(NC#N)NCCSCc1csc(N=C(N)N)n1`: 840 nM; `O=C(Nc1ccccc1F)NC1CCN(c2ccnc(Nc3ccc(F)cc3)n2)CC1`: 750 nM.
`CC1=C(C(=O)Nc2cc3cn[nH]c3cc2F)C(c2cccc(NS(C)(=O)=O)c2)CC(=O)N1` (stereo unspecified) showed an IC50 of 430 nM.
Next, `CCCCCCN1CCN(Cc2cccc(NC(=O)c3cc4ccccc4s3)c2)CC1`: 910 nM; `Cc1cc2c(NC(=O)NC3CCN(CCc4cccc(Cl)c4)CC3)cccc2cn1`: 370 nM.
Under `Oc1ccc(CCNc2nc(NCCOc3ccccc3-c3ccccc3)nc(N3CCNCC3)n2)cc1` stands 1040 nM; under `COc1ccc2nc(-c3ccc(C(=O)NCCCN4CCN(c5cc(Cl)ccc5OC)CC4)cc3OC)[nH]c2c1`, 870 nM; under `Cn1nc(-c2cccc(CNCCc3cccs3)c2)c2cnc(NC3CCCC3)nc21`, 1890 nM.
`CC(=O)N1N=C(c2[nH]c3ccc(Br)cc3c2C)OC1c1ccccc1` (stereo unspecified) yielded an IC50 of 780 nM.
In turn, `Cc1cccc2[nH]c(-c3cccc(-c4cccc(NC(=O)Nc5ccc(F)c(F)c5F)c4)c3)nc12` registered a 50% inhibitory concentration (IC50) of 110 nM.
Next, `CN1CCN(c2ccc(Nc3c(C(N)=O)cnc4cc(-c5ccoc5)ccc34)cc2)CC1`: 810 nM; `Cc1ccc(Nc2nc(C)cc(Nc3cccc(C#N)c3)n2)cc1`: 980 nM.
Next, `COc1ccc(-n2ccnc2SCC(=O)Nc2cc(Cl)ccc2OC)c(OC)c1`: 730 nM.
On to `COc1cc(NC(=O)/C=C/c2cccc3cc[nH]c23)ccc1OCCN(C(C)C)C(C)C`, for which the half-maximal inhibitory concentration (IC50) worked out at 270 nM. Compared with the last compound, the IC50 is about 2.7-fold lower.
For the compound `O=C(Nc1cccc(-c2cc(-c3c(Cl)cccc3Cl)no2)c1)c1cncc(-c2cccs2)c1`, the IC50 is 950 nM.
The compound `CCCN(CC)CCOC(=O)c1ccccc1` gave an IC50 of 740 nM. The IC50 values of the last two compounds are within 1.5-fold of each other.
Under `CCC[C@@H]([C@@H](CC(C)C)C(=O)N[C@@H](CCCNc1nccc(C(F)(F)F)n1)C(=O)Nc1nccs1)N(O)C=O` stands 370 nM.
Regarding `COc1ccc(NC(=O)/C=C/c2ccccc2Cl)cc1OCCN1CCC(N2CCCC2)CC1`, the IC50 turned out to be 790 nM.
Under `c1ccc(Oc2ccc(Nc3ccnc4cc(-c5cccc(CNCCN6CCOCC6)c5)ccc34)cc2)cc1` stands 390 nM; under `CCCCNc1nccc2ccc(-c3ccncc3)cc12`, 770 nM.
Turning to `Cc1[nH]c(C)c(-c2ccc(-c3ccc(OCC(F)(F)F)cc3)nc2)c(=O)c1Cl`, the IC50 was 390 nM.
Turning to `O=C(NCCN1CCC(NC(=O)c2ccc(-c3ccccn3)s2)CC1)c1cccc(C(F)(F)F)c1`, the IC50 worked out at 860 nM.
Under `O=C1c2ccccc2C(=O)N1c1ccc(S(=O)(=O)N2CCOCC2)cc1` stands 1260 nM; under `COc1ccc2nc3cc(Cl)ccc3c(NCCCO)c2c1`, 780 nM; under `COc1cc2ncnc(Nc3ccc(OCc4ccccc4)c(C(F)(F)F)c3)c2cc1OC`, 250 nM.
Under `c1ccc2nc(NCCCCCCCCNc3ccc4ccccc4n3)ccc2c1` stands 270 nM.
Under `CCCCn1c(C)c(C(=O)OCC)c2cc(OC(C)=O)c(Br)cc21` stands 630 nM; under `Cc1ccc(CC(C)NCC(O)c2cccc(C(F)(F)F)c2)cc1F` (stereo unspecified), 920 nM.
Turning to `CCN(CC)CCN(Cc1ccc(-c2ccc(C(F)(F)F)cc2)cc1)C(=O)Cn1c(SCc2ccc(F)c(F)c2F)nc(=O)c2c1CCC2`, the IC50 turned out to be 1020 nM.
In turn, `CCCCOc1ccc(CNCCCCCCNCc2ccc(OCCCC)c3ccccc23)c2ccccc12` gave an IC50 of 1130 nM.
Compound `N#Cc1ccc(-c2ccc(C(=O)Nc3ccc4c(c3)CCN(C3CCC3)CC4)nc2)cn1` came in with an IC50 of 1160 nM.
As for `CCCCOc1c(CCC)cc(Cc2cnc(N)nc2N)cc1CCC`, the IC50 is 630 nM.
In turn, `Cc1cccc(Cn2ccc3c4c(N)nc(N)nc4ccc32)c1` came in with an IC50 of 10 nM.
In the case of `COc1cccc(CNc2ncc(-c3ccsc3)c(-c3nccs3)n2)c1`, the IC50 was found to be 420 nM.
For `CCN1CCN(c2cc(C)c3cc(NC(=O)C=Cc4cccc(OC)c4OC)ccc3n2)CC1`, the IC50 came to 700 nM.
